# Data from patent publication US11485740B2, “Inhibitors of TRPC6” (Boehringer Ingelheim International GmbH, priority 2018, dated 2022).
# Target: T1, human TRPC6 (Homo sapiens, UniProt Q9Y210)
# T1 construct: expressed in transfected cells
# T1 sequence (Q9Y210 1-931): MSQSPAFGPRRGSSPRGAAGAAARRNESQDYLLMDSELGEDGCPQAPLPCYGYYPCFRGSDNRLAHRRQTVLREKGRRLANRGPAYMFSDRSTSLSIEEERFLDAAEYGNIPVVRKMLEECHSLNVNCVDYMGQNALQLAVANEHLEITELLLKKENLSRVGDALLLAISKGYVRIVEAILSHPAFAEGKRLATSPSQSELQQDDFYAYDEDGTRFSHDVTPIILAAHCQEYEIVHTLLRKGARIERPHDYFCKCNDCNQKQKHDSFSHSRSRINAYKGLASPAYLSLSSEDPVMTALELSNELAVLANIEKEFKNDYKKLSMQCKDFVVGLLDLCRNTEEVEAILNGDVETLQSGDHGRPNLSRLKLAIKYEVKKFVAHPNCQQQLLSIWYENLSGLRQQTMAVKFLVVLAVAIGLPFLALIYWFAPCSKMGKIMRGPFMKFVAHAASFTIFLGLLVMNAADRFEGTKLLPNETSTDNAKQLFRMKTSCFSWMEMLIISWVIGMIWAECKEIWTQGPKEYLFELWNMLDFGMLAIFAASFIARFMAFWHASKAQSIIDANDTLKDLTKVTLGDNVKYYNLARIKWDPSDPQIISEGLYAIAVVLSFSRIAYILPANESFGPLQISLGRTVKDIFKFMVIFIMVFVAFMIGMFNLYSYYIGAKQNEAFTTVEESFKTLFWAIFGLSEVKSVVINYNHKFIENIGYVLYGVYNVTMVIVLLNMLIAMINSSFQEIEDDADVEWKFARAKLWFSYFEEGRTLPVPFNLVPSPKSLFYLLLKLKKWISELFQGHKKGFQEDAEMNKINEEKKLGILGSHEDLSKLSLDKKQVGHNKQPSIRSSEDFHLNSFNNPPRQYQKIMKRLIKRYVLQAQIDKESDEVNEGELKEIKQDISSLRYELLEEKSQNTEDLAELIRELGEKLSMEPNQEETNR
# Assay: High throughput screening assay: Fluo4/AM calcium fluorescence in HEK293/TREx cells expressing human TRPC6, agonist GSK1702934A (single concentration 10 μM and IC50 curves)
# Type: cell-based
# Conditions: antagonist effect against human TRPC6, 7 concentrations 20 μM to 0.027 μM, triplicate
# In short: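 HEK293/TREx cells stably carrying tetracycline-induced (1 μg/ml) human TRPC6, loaded with Fluo4/AM (0.5 μM, 60 min, RT), pretreated 2 min with compound (10 μM final in screen), then stimulated with GSK1702934A in high-Ca2+ Ringer's (20 mM Ca2+ final). Fluorescence ratio over ~3 min normalized to no-compound and control-blocker wells; IC50 from triplicate curves.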
row,SMILES,IC50 [nM]
1,"COc1cc(C(=O)N2CCC(c3ccc(N)nn3)CC2)ccc1-c1ccc(OC2CC2)nc1 [Compound 73, [4-(6-Amino-pyridazin-3-yl)-piperidin-1-yl]-[4-(6-cyclopropoxy-pyridin-3-yl)-3-methoxy-phenyl]-methanone]",510
2,"CC[C@@H](C)Oc1ccc(-c2ccc(C(=O)N3CCC(c4ccc(N)nn4)CC3)cc2OC)cn1 [Compound 74, [4-(6-Amino-pyridazin-3-yl)-piperidin-1-yl]-{4-[6-((R)-sec-butoxy)-pyridin-3-yl]-3-methoxy-phenyl}-methanone]",140
3,"CC[C@H](C)Oc1ccc(-c2ccc(C(=O)N3CCC(c4ccc(N)nn4)CC3)cc2OC)cn1 [Compound 75, [4-(6-Amino-pyridazin-3-yl)-piperidin-1-yl]-{4-[6-((S)-sec-butoxy)-pyridin-3-yl]-3-methoxy-phenyl}-methanone]",91
4,"COc1cc(C(=O)N2CCC(c3ccc(N)nn3)CC2)ccc1-c1ccc(OCC2CC2(F)F)nc1 (stereo not drawn) [Compound 76, [4-(6-Amino-pyridazin-3-yl)-piperidin-1-yl]{4-[6-(2,2-difluoro-cyclopropylmethoxy)-pyridin-3-yl]-3-methoxy-phenyl}-methanone]",380
5,"COc1cc(C(=O)N2CCC(c3ccc(N)nn3)CC2)ccc1-c1ccc(OCC2CC2(C)C)nc1 (stereo not drawn) [Compound 77, [4-(6-Amino-pyridazin-3-yl)-piperidin-1-yl]-{4-[6-(2,2-dimethyl-cyclopropylmethoxy)-pyridin-3-yl]-3-methoxy-phenyl}-methanone]",160
6,"COc1cc(C(=O)N2CCC(c3ccc(N)nn3)CC2)ccc1-c1ccc(O[C@@H](C)C2CC2)nc1 [Compound 78, [4-(6-Amino-pyridazin-3-yl)-piperidin-1-yl]-{4-[6-((S)-1-cyclopropyl-ethoxy)-pyridin-3-yl]-3-methoxy-phenyl}-methanone]",460
7,"COc1cc(C(=O)N2CCC(c3ccc(N)nn3)CC2)ccc1-c1ccc(OCC2(C)CC2)nc1 [Compound 79, 6-[1-(3-Methoxy-4-{6-[(1-methylcyclopropyl)methoxy]pyridin-3-yl}benzoyl)piperidin-4-yl]pyridazin-3-amine]",120
8,"COc1cc(C(=O)N2CCC(c3ccc(N)nn3)CC2)ccc1-c1ccc(OCC2(CF)CC2)nc1 [Compound 80, [4-(6-Amino-pyridazin-3-yl)-piperidin-1-yl]-{4-[6-(1-fluoromethyl-cyclopropylmethoxy)-pyridin-3-yl]-3-methoxy-phenyl}-methanone]",130
9,"COc1cc(C(=O)N2CCC(c3ccc(N)nn3)CC2)ccc1-c1ccc(O[C@H](C)C2CC2)nc1 [Compound 81, [4-(6-Amino-pyridazin-3-yl)-piperidin-1-yl]-{4-[6-((R)-1-cyclopropyl-ethoxy)-pyridin-3-yl]-3-methoxy-phenyl}-methanone]",220
10,"COc1cc(C(=O)N2CCC(c3ccc(N)nn3)CC2)ccc1-c1ccc(OCC2CC2)nc1 [Compound 82, [4-(6-Amino-pyridazin-3-yl)-piperidin-1-yl]-[4-(6-cyclopropylmethoxy-pyridin-3-yl)-3-methoxy-phenyl]-methanone]",340
11,"CC(C)Cc1ccc(-c2ccc(C(=O)N3CCC(c4ccc(N)nn4)CC3)cc2)cc1 [Compound 83, [4-(6-Amino-pyridazin-3-yl)-piperidin-1-yl]-(4′-isobutyl-biphenyl-4-yl)-methanone]",8700
12,"COc1cc(C(=O)N2CCC(c3cnc(N)cc3OC)CC2)ncc1-c1ccc(C(F)(F)F)cc1 [Compound 84, (6-Amino-4-methoxy-3′,4′,5′,6′-tetrahydro-2′H-[3,4′]bipyridinyl-1′-yl)-[4-methoxy-5-(4-trifluoromethyl-phenyl)-pyridin-2-yl]-methanone]",130
13,"COc1cc(C(=O)N2CCC(c3nnc(N)cc3OC)CC2)ncc1-c1ccc(C(F)(F)F)cc1 [Compound 85, [4-(6-Amino-4-methoxy-pyridazin-3-yl)-piperidin-1-yl]-[4-methoxy-5-(4-trifluoromethyl-phenyl)-pyridin-2-yl]-methanone]",350
14,"COc1cc(C(=O)N2CCC(c3nnc(N)cc3OC)CC2)ncc1-c1ccc(C(F)(F)F)nc1 [Compound 86, [4-(6-Amino-4-methoxy-pyridazin-3-yl)-piperidin-1-yl]-(4-methoxy-6′-trifluoromethyl-[3,3′]bipyridinyl-6-yl)-methanone]",660
15,"COc1cc(C(=O)N2CCC(c3nnc(N)cc3OC)CC2)ncc1-c1ccccc1 [Compound 87, [4-(6-Amino-4-methoxy-pyridazin-3-yl)-piperidin-1-yl]-(4-methoxy-5-phenyl-pyridin-2-yl)-methanone]",540
16,"COc1cc(C(=O)N2CCC(c3nnc(N)cc3C)CC2)ncc1-c1ccc(C(F)(F)F)cc1 [Compound 88, [4-(6-Amino-4-methyl-pyridazin-3-yl)-piperidin-1-yl]-[4-methoxy-5-(4-trifluoromethyl-phenyl)-pyridin-2-yl]-methanone]",280
17,"COc1cc(C(=O)N2CCN(c3cnc(N)cc3OC)C[C@H]2CO)ncc1-c1ccccc1 [Compound 89, [(S)-4-(6-Amino-4-methoxy-pyridin-3-yl)-2-hydroxymethyl-piperazin-1-yl]-(4-methoxy-5-phenyl-pyridin-2-yl)-methanone]",540
18,"COc1cc(C(=O)N2CCN(c3ccc(N)nc3)C[C@@H]2CO)ncc1-c1ccc(F)cc1 [Compound 90, [(R)-4-(6-Amino-pyridin-3-yl)-2-hydroxymethyl-piperazin-1-yl]-[5-(4-fluoro-phenyl)-4-methoxy-pyridin-2-yl]-methanone]",370
19,"COc1cc(C(=O)N2CCN(c3ccc(N)nc3)C[C@@H]2CO)ncc1-c1ccccc1 [Compound 91, [(R)-4-(6-Amino-pyridin-3-yl)-2-hydroxymethyl-piperazin-1-yl]-(4-methoxy-5-phenyl-pyridin-2-yl)-methanone]",300
20,"COc1cc(C(=O)N2CCN(c3cnc(N)cc3C)C[C@@H]2CO)ncc1-c1ccc(C(F)(F)F)cc1 [Compound 92, [(R)-4-(6-Amino-4-methyl-pyridin-3-yl)-2-hydroxymethyl-piperazin-1-yl]-[4-methoxy-5-(4-trifluoromethyl-phenyl)-pyridin-2-yl]-methanone]",56
21,"COc1cc(C(=O)N2CCN(c3cnc(N)cc3C)C[C@@H]2CO)ncc1-c1ccc(F)cc1 [Compound 93, [(R)-4-(6-Amino-4-methyl-pyridin-3-yl)-2-hydroxymethyl-piperazin-1-yl]-[5-(4-fluoro-phenyl)-4-methoxy-pyridin-2-yl]-methanone]",27
22,"COc1cc(C(=O)N2CCN(c3cnc(N)cc3C)C[C@@H]2CO)ncc1-c1ccccc1 [Compound 94, [(R)-4-(6-Amino-4-methyl-pyridin-3-yl)-2-hydroxymethyl-piperazin-1-yl]-(4-methoxy-5-phenyl-pyridin-2-yl)-methanone]",27
23,"COc1cc(C(=O)N2CCN(c3cnc(N)cc3OC)C[C@@H]2CO)ncc1-c1ccc(C(F)(F)F)cc1 [Compound 95, [(R)-4-(6-Amino-4-methoxy-pyridin-3-yl)-2-hydroxymethyl-piperazin-1-yl]-[4-methoxy-5-(4-trifluoromethyl-phenyl)-pyridin-2-yl]-methanone]",580
24,"COc1cc(C(=O)N2CCN(c3cnc(N)cc3OC)C[C@@H]2CO)ncc1-c1ccccc1 [Compound 96, [(R)-4-(6-Amino-4-methoxy-pyridin-3-yl)-2-hydroxymethyl-piperazin-1-yl]-(4-methoxy-5-phenyl-pyridin-2-yl)-methanone]",320
25,"COc1cc(C(=O)N2CCC(c3ccc(N)nc3)CC2)ncc1-c1ccc(C(F)(F)F)nc1 [Compound 97, (6-Amino-3′,4′,5′,6′-tetrahydro-2′H-[3,4′]bipyridinyl-1′-yl)-(4-methoxy-6′-trifluoromethyl-[3,3′]bipyridinyl-6-yl)-methanone]",69
26,"COC[C@H]1CN(c2cnc(N)cc2OC)CCN1C(=O)c1cc(OC)c(-c2ccc(F)cc2)cn1 [Compound 98, [(R)-4-(6-Amino-4-methoxy-pyridin-3-yl)-2-methoxymethyl-piperazin-1-yl]-[5-(4-fluoro-phenyl)-4-methoxy-pyridin-2-yl]-methanone]",200
27,"COC[C@H]1CN(c2cnc(N)cc2OC)CCN1C(=O)c1cc(OC)c(-c2ccc(C(F)(F)F)cc2)cn1 [Compound 99, [(R)-4-(6-Amino-4-methoxy-pyridin-3-yl)-2-methoxymethyl-piperazin-1-yl]-[4-methoxy-5-(4-trifluoromethyl-phenyl)-pyridin-2-yl]-methanone]",300
